Several values for one entry are separate records, joined by “and”; a condition that tells them apart may be missing. Equal values may be shown once.
Experiments:
[1] = molecular target: T1, Rat recombinant α2,3(N)ST (Rattus norvegicus, UniProt Q02734); assay: Sialyltransferase assay with cloned α2,3(N)ST; format: biochemical; settings: Table I; acceptor 7.5 mM; 100% = 29520 CPM (Galβ1,4GlcNAcβ-O—Al)
T1 construct: purchased Calbiochem
T1 sequence (Q02734 29-374 limits assumed): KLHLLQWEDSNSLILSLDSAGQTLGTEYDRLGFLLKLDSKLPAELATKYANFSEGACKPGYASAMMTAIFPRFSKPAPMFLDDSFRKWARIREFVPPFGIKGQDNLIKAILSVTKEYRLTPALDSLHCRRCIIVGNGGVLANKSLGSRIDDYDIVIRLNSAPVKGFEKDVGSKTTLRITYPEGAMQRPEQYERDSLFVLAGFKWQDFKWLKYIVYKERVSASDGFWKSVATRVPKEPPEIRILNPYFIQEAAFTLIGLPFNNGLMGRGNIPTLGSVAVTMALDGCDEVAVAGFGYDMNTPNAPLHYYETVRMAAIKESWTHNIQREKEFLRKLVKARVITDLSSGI
Method in brief: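 Each rat recombinant sialyltransferase incubated 2 h at 37° C in 0.1M NaCacodylate pH6.0 with acceptor (typically 7.5 mM) and CMP-[9-³H]NeuAc (typically 0.2 μci; 20 μci/nmol), in duplicate, acceptor-free blank subtracted. Radiolabelled product separated on Dowex-1-Formate or Sep-Pak C18 and counted by liquid scintillation.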

[2] = system: α1,2-L-FT of breast tumor BC9400; assay: α1,2-L-FT assay, breast tumor extract; format: biochemical, human; settings: 1 mg protein of the tissue extract
Protocol: Colon tumor tissue (CC9338) and breast tumor tissue (BC9400) were obtained during surgical procedures at Roswell Park Cancer Institute and stored frozen within 1 h at −70° C. The tissues were homogenized at 4° C. with 4 volumes of 0.1M Tris Maleate […] 0.1% NaN3 using kinematica. After adjusting the concentration of Triton X-100 to 2%, these homogenates were mixed in the cold room for 1 h using Speci-Mix (Thermolyne) and then centrifuged at 20,000 g for 1 h at 4° C. The clear fat-free supernatant was stored frozen at −20° C. until use. Aliquots of 10 μL from this extract were used in assays run in duplicates. Glycosyltransferase activity in cell lysate was determined by mixing the lysates with acceptor and radiolabeled donor (monosaccharide) under the reaction conditions detailed below, followed by separation of un-reacted donor from the radioactive product using anionic or hydrophobic chromatography. In all cases, the radioactive content of isolated products was determined by using 3a70 scintillation cocktail (Research Products International, Mount Prospect, Ill.) and a Beckman LS6500 scintillation counter. Controls for each assay contained the reaction mixture with everything except the acceptor. All assays were run in duplicate.
α1,2, α1,6-, α1,3- and α1,4-fucosyltransferase (FT) assay reactions were carried out for 2 h in a reaction mixture containing 50 mM Hepes buffer (pH 7.5), 5 mM MnCl2, 7 mM ATP, 3 mM NaN3, 3 mM synthetic acceptor or 40 μg of fetuin-based acceptor, 0.05 μCi GDP-[14C]Fuc (290 mCi/mmol) and 10 μl cell extract in a total volume of 20 μl [Chandrasekaran et al., 1996]. Sulfotransferase (Sulfo T) assay reactions took 2 h and required a mixture containing 100 mM Tris-maleate (pH 7.2), 5 mM Mg Acetate, 5 mM ATP, 10 mM NaF, 10 mM BAL, 7.5 mM acceptor, 0.5 μCi of [^35S]PAPS (specific activity 2.4 Ci/mmol) and 10 μl of cell extract in a total volume of 30 μl [Chandrasekaran et al., 2004].
Dowex-1-C1 or Sep-Pak C18 cartridges were used to isolate radiolabeled product from the reaction mixture. For GalT, GalNAc-T and FT assays, the incubation mixture was diluted with 1 ml water and passed through a 1 ml Dowex-1-C1 column [Chandrasekaran et al., 1996; Chandrasekaran et al., 2001]. The column was washed twice with 1 ml of water. The breakthrough and the water wash contained the [^14C]-galactosylated or [^14C]-fucosylated products formed with neutral acceptors. 3 ml of 0.1M NaCl was used to obtain [^14C]-fucosylated products from sialylated acceptors after water elution. For sialytransferase assays, the radioactive products from benzylglycosides were separated by hydrophobic chromatography on Sep-Pak C18 cartridge (Waters, Milford, Mass.), and elution of the product was done with 3 ml methanol [Palcic et al., 1988]. […]

SMILES | Sialyltransferase activity (%) Cloned α2,3(N)ST [1] | α1,2-L-FT activity: incorporation of radioactive sugar [2] [CPM × 10^−3]
CO[C@H]1O[C@H](CO)[C@H](O)[C@H](O[C@@H]2O[C@H](CO)[C@H](O)[C@H](O[C@@H]3O[C@H](C)[C@H](O)[C@H](O)[C@H]3O)[C@H]2NC(C)=O)[C@H]1O [D-Fucβ1,3GalNAcβ1,3Galα-O-Me] | 3.1% | 16.2
CO[C@H]1[C@H](O[C@H]2[C@H](O)[C@@H](NC(C)=O)C(O)O[C@@H]2CO)O[C@H](CO)[C@H](O)[C@@H]1O (some centres unmarked) [2-O-MeGalβ1,4GlcNAc] | 60.0% | –
CO[C@H]1[C@H](O[C@H]2[C@H](O)[C@@H](CO)OC(O)[C@@H]2NC(C)=O)O[C@H](CO)[C@H](O)[C@@H]1O (some centres unmarked) [2-O-MeGalβ1,3GlcNAc] | 115.3% | –
CO[C@H]1O[C@H](CO)[C@H](O)[C@H](O[C@@H]2O[C@H](CO)[C@H](O)[C@H](O[C@@H]3O[C@H](CO)[C@H](O)[C@H](O)[C@H]3O)[C@H]2NC(C)=O)[C@H]1O [Galβ1,3GalNAcβ1,3Galα-O-Me] | 106.8% and 106.8^20% | 13.7
C=CCO[C@H]1O[C@H](CO)[C@H](O)[C@H](O[C@@H]2O[C@H](CO)[C@H](O)[C@H](O)[C@H]2O)[C@H]1NC(C)=O [Galβ1,3GalNAcα-O—Al] | 24.1% | 5.5
